We go through 16 molecules from ChEMBL document CHEMBL5356986, “Research status of indole-modified natural products” (RSC Med Chem, 2023).

Each structure is given as a SMILES string. ≈ marks a conversion by molar mass, not a printed value.

The test system of one assay is MDA-MB-453. In words: Antiproliferative activity against human MDA-MB-453 cells assessed as reduction in cell growth after 72 hrs by MTT assay. Conditions: MDA-MB-453, 72 h. It counts as functional, cell-based. (Tetrazolium dyes change colour on reduction, which living cells bring about.)
For assay [1], the system named is MCF7. In words: Antiproliferative activity against human MCF7 cells assessed as cell growth inhibition incubated for 6 days by SRB assay. Type of assay: functional, cell-based. Conditions: MCF7, 144 h. Background: The SRB assay estimates cell density from bound dye.
The test system of another assay is CAMA-1. Kind of assay: Antiproliferative activity against human CAMA-1 cells assessed as cell growth inhibition. Type of assay: functional, cell-based.
The next assay relates to SK-BR-3. In words: Antiproliferative activity against human SK-BR-3 cells incubated for 72 hrs by MTT assay. The following applies: SK-BR-3, 72 h. It counts as functional, cell-based.
For a further assay, the system named is MDA-MB-231. Kind of assay: Antiproliferative activity against human MDA-MB-231 cells assessed as cell growth inhibition. It counts as functional, cell-based.
The subject of assay [2] is SMMC-7721. Kind of assay: Antiproliferative activity against human SMMC-7721 cells assessed as reduction in cell growth by SRB assay. Type of assay: functional, cell-based.
In the next assay the test system is Hep 3B2. Kind of assay: Cytotoxicity against human Hep3B cells assessed as inhibition of cell growth by MTT assay. It counts as functional, cell-based.
In another assay the test system is A549. In words: Antiproliferative activity against human A549 cells assessed as cell growth inhibition measured after 72 hrs by MTT assay. Type of assay: functional, cell-based. Conditions: A549, 72 h.
Assay [3] relates to HeLa. Kind of assay: Cytotoxicity against human HeLa cells assessed as reduction in cell viability. Type of assay: functional, cell-based.
Another assay has as its system PC-3. In words: Cytotoxicity against human PC-3 cells assessed as reduction in cell viability. It counts as functional, cell-based.
The next assay relates to Bel-7402. Kind of assay: Cytotoxicity against human Bel-7402 cells measured after 72 hrs by MTT assay. The following applies: Bel-7402, 72 h. Type of assay: functional, cell-based.
The test system of another assay is LoVo. In words: Cytotoxicity against human LoVo cells incubated for 72 hrs by MTT assay. Type of assay: functional, cell-based.
In a further assay the test system is A2780. Kind of assay: Antiproliferative activity against human A2780 cells assessed as inhibition of cell growth. Type of assay: functional, cell-based.
The test system of assay [4] is MCF7. Kind of assay: Antiproliferative activity against human MCF7 cells assessed as cell growth inhibition measured after 72 hrs by MTT assay. The following applies: MCF7, 72 h. It counts as functional, cell-based.
In assay [5] the test system is HepG2. In words: Cytotoxicity against human HepG2 cells assessed as reduction in cell viability measured after 48 hrs by MTT colorimetric based assay. Type of assay: functional. Conditions: HepG2, 48 h.
Assay [6] has as its system SGC-7901. In words: Cytotoxicity against human SGC-7901 cells assessed as reduction in cell viability measured after 48 hrs by MTT colorimetric assay. Type of assay: functional, cell-based. The following applies: SGC-7901, 48 h.
Assay [7] concerns HepG2. Kind of assay: Cytotoxicity against human HepG2 cells assessed as cell growth inhibition. It counts as functional, cell-based.
For a further assay, the target named is Alpha glucosidase (Homo sapiens, UniProt O43451+P10253+P14410+Q2M2H8). Kind of assay: Inhibition of Alpha-glucosidase (unknown origin) spectrophotometric analysis. Type of assay: protein assay.
For the next assay, the target named is Mu-type opioid receptor (Homo sapiens, UniProt P35372). Kind of assay: Inhibition of mu opioid receptor (unknown origin).
The subject of another assay is SiHa. In words: Antiproliferative activity against human SiHa cells assessed as inhibition of cell growth by MTT assay. Type of assay: functional, cell-based.
The next assay has as its system C-33-A. In words: Antiproliferative activity against human C-33-A cells assessed as reduction in cell viability measured after 48 hrs by MTT assay. It counts as functional, cell-based.
Assay [8] is described as follows: Antiproliferative activity against human CaLo cells assessed as reduction in cell viability. It counts as functional, cell-based.
For assay [9], the system named is HepG2. In words: Antiproliferative activity against human HepG2 cells assessed as inhibition of cell proliferation after 72 hrs by MTT assay. Conditions: HepG2, 72 h. It counts as functional, cell-based.
Assay [10] relates to SMMC-7721. Kind of assay: Cytotoxicity against human SMMC-7721 cells assessed as reduction in cell viability. It counts as functional, cell-based.
For the next assay, the target named is Acetylcholinesterase (Homo sapiens, UniProt P22303). Kind of assay: Inhibition of Acetylcholinesterase (unknown origin).
For the next assay, the system named is HOP-92. In words: Growth inhibition against human HOP-92 cells incubated for 48 hrs by sulforhodamine B assay. Type of assay: functional.
The test system of the next assay is HCT-116. In words: Antiproliferative activity against human HCT-116 cells assessed as inhibition of cell growth. Type of assay: functional, cell-based.
The subject of assay [11] is HeLa. Kind of assay: Antiproliferative activity against human HeLa cells assessed as reduction in cell growth measured after 48 hrs by MTT assay. It counts as functional, cell-based.
Assay [12] deals with MCF7. In words: Antiproliferative activity against human MCF7 cells assessed as inhibition of cell growth incubated for 24 hrs by MTT assay. It counts as functional, cell-based. The following applies: MCF7, 24 h.
For assay [13], the system named is SGC-7901. Kind of assay: Antiproliferative activity against human SGC-7901 cells assessed as cell growth inhibition. It counts as functional, cell-based.
The subject of the next assay is RD. In words: Antiproliferative activity against human RD cells assessed as cell growth inhibition measured after 72 hrs by MTT assay. It counts as functional, cell-based.
In assay [14] the target is Prostaglandin G/H synthase 2 (Homo sapiens, UniProt P35354). Kind of assay: Inhibition of COX-2 (unknown origin).
Assay [15] concerns Mycobacterium tuberculosis. Kind of assay: Antimycobacterial activity against Mycobacterium tuberculosis H37Rv assessed as reduction in bacterial cell growth. Type of assay: functional.

Prostaglandin G/H synthase 2, sequence (P35354 whole entry): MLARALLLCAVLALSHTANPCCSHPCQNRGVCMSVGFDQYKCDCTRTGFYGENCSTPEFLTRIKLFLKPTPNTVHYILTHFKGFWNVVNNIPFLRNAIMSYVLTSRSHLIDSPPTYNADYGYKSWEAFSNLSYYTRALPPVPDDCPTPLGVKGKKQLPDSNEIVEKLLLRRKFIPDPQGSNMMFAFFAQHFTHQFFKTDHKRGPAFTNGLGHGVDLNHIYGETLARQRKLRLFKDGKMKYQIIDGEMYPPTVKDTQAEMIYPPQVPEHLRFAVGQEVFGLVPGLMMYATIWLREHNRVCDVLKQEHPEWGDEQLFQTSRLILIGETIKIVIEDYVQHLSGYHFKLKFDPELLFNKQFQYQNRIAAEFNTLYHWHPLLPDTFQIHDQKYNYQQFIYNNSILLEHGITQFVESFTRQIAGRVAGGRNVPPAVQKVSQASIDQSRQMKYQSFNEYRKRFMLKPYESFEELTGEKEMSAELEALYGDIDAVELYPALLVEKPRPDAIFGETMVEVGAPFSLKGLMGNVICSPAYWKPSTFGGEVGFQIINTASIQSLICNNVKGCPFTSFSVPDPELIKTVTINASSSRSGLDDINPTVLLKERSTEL
Mu-type opioid receptor, sequence (P35372 whole entry): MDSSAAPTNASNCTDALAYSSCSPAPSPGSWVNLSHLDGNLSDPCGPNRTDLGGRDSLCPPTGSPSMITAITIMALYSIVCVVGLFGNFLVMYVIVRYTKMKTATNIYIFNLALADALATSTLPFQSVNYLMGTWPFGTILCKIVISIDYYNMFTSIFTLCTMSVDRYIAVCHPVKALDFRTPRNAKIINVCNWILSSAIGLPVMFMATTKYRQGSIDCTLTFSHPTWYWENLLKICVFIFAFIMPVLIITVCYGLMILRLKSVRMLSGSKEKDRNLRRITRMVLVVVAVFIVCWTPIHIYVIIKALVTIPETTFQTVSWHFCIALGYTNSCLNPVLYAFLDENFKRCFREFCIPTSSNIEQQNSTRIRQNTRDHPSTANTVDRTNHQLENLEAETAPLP
Acetylcholinesterase, sequence (P22303 whole entry): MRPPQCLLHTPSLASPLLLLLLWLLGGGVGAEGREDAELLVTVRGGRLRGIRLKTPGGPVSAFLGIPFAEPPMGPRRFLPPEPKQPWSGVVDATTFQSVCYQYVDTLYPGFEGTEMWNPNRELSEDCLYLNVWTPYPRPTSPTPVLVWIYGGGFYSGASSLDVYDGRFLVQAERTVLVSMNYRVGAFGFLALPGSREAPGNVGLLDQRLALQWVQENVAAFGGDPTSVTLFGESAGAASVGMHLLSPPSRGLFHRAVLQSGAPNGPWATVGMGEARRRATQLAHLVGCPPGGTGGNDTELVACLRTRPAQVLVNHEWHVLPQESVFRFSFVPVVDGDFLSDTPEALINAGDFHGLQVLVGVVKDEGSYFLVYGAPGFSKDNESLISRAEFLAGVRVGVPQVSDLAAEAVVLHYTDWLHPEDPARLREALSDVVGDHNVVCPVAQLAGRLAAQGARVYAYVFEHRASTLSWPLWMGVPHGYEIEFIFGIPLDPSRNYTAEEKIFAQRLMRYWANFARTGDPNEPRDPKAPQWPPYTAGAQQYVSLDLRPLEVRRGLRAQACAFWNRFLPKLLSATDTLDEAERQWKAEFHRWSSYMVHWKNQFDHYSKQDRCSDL

As usually defined, the IC50 is the concentration at which inhibition is half-maximal. For `CC[C@@]1(O)C(=O)OCc2c1cc1n(c2=O)Cc2cc3ccccc3nc2-1` [CAMPTOTHECIN], the IC50 in the assay on MDA-MB-453 is below 10 nM; in the assay with MCF7 [1], below 10 nM; in the assay with CAMA-1 it was 70 nM; in the assay with SK-BR-3 it was below 10 nM; in the assay on MDA-MB-231 it was below 10 nM; with SMMC-7721 [2], 3950 nM.

Take `O=C(/C=C(O)/C=C/c1c[nH]c2ccccc12)/C=C/c1c[nH]c2ccccc12`: the IC50 with Hep 3B2 was 14000 nM.

For `COc1cc(C2CCCCc3c2ccc2c3ccn2C)cc(OC)c1OC` (centres undefined), the IC50 is 22 nM in the assay on A549; 56 nM with HeLa [3]; 47 nM with PC-3; 39 nM in the assay with Bel-7402; 49 nM in the assay on LoVo; 37 nM with A2780. In addition, the IC50 in the assay on MCF7 [4] amounted to 51 nM.

For the molecule `CC(C)COC(=O)[C@]12CC[C@@H](C)[C@H](C)[C@H]1C1=CC(=O)[C@@H]3[C@@]4(C)Cc5c([nH]c6ccc(Cl)cc56)C(C)(C)[C@@H]4CC[C@@]3(C)[C@]1(C)CC2`, the IC50 in the assay with HepG2 [5], in the assay on SGC-7901 [6] and in the assay on HepG2 [7] was 3120 nM each time.

As to `COc1ccc2c(CSC(=S)NCCc3c[nH]c4ccccc34)cc(=O)oc2c1`, on Alpha glucosidase, the IC50 worked out at 85000 nM.

In turn, `O=C(N[C@@H]1CC[C@@]2(O)[C@H]3Cc4ccc(O)c5c4[C@@]2(CCN3CC2CC2)[C@H]1O5)c1cc2ccccc2[nH]1` gave an IC50 against Mu-type opioid receptor of 0.21 nM.

As for `O=C1C(Cl)=C(NC(Cc2c[nH]c3ccccc23)C(=O)O)C(=O)c2ccccc21` (centres undefined), the IC50 with SiHa was 3200 nM; in the assay on C-33-A, 3 nM; in assay [8], 2690 nM.

Regarding `COc1cc(/C=N/NC(=O)c2cn(Cc3ccccc3)c3ccccc23)cc(OC)c1OC`, in the assay with HepG2 [9], the IC50 came to 0.63 nM.

`Cc1ccc2[nH]c3c(c2c1)C[C@]1(C)[C@H]2CC=C4[C@@H]5[C@@H](C)[C@H](C)CC[C@]5(C(=O)NCCCN(C)C)CC[C@@]4(C)[C@]2(C)CC[C@H]1C3(C)C`: the IC50 in the assay on SMMC-7721 [10] turned out to be 1080 nM.

On to `O=C1Cc2cc(OCc3ccc(F)cc3)ccc2C=C1C(=O)NCCc1c[nH]c2ccccc12`, for which, on Acetylcholinesterase, half-maximal inhibition (IC50) required 160 nM.

For orientation: GI50 means the concentration at which growth is held to half of that of the control. Read a low GI50 as more potent growth inhibition. With `Cc1cc(=O)oc2c(C)c(O)c(-c3cc4ccc(F)cc4[nH]3)cc12`, the GI50 in the assay on HOP-92 was 950 nM.

`COc1cc(C(=O)/C(C)=C/c2c[nH]c3cc(F)ccc23)cc(OC)c1OCCN`: the IC50 with HCT-116 was found to be 3.2 nM.

As for `O=C(c1cc2ccc(Cl)cc2n1Cc1cccc2ccccc12)N(CCO)[C@@H]1CC(=O)N2C[C@@H]3CCCN4CCC[C@@H]([C@H]34)[C@H]2C1`, the IC50 in the assay on HeLa [11] was 900 nM; in the assay with MCF7 [12], 1200 nM; with SGC-7901 [13], 1100 nM.

Turning to `CC(=O)O[C@H]1C(=O)[C@@]2(C)[C@H]([C@H](OC(=O)c3ccccc3)[C@]3(O)C[C@H](OC(=O)[C@H](O)[C@@H](NC(=O)c4ccccc4)c4ccccc4)C(C)=C1C3(C)C)[C@]1(OC(C)=O)CO[C@@H]1C[C@@H]2O` [PACLITAXEL], the figures for the IC50 in the assay with SGC-7901 [6] and in the assay on RD were 14400 nM and above 10000 nM, respectively.

On to `CC1=NN(c2ccccc2)C(=O)/C1=C\c1cn(CCCOc2cc(O)c3c(=O)cc(-c4ccccc4)oc3c2)c2ccccc12`, for which the midpoint of inhibition in assay [14], the IC50, lay at 700 nM.

For orientation: MIC means the lowest concentration that inhibits growth of the organism. `O=C(c1ccncc1)n1nc(-c2c[nH]c3ccccc23)cc1-c1cc2ccccc2oc1=O`: the MIC in assay [15] stood at 2.02 µM (≈ 0.874 µg/mL).
